Source: ChEMBL document CHEMBL1201862, “PubChem BioAssay data set” (2004)
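Assay format: 96-well plates, 48-hour exposure. Here, GI50 denotes the concentration required for 50% inhibition of growth.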 Active and inactive are the calls of the source. No stated cut-off is given here; in the data, active = GI50 up to about 1.1 µM and inactive = higher.

Key:
Test in all cases: inhibition of tumour cell growth, NCI panel, 48 h
A498 = test system: A498
NCI-H522 = test system: NCI-H522
HCT-116 = test system: HCT-116
LOX IMVI = test system: LOX IMVI
CCRF-CEM = test system: CCRF-CEM
NCI-H460 = test system: NCI-H460
RXF 393 = test system: RXF 393
TK-10 = test system: TK-10
ACHN = test system: ACHN
M14 = test system: M14
NCI-H23 = test system: NCI-H23
MOLT-4 = test system: MOLT-4
HL-60 = test system: HL-60
SF-268 = test system: SF-268
SF-539 = test system: SF-539
OVCAR-5 = test system: OVCAR-5
OVCAR-4 = test system: OVCAR-4
SNB-75 = test system: SNB-75

Measured: GI50

Cn1c2c(c3ccccc31)CCN(CCCN1CCN(c3cccc(Cl)c3)CC1)C2=O
inactive: A498 3.05 µM | NCI-H522 18.8 µM | HCT-116 12.3 µM | LOX IMVI 20.2 µM | CCRF-CEM 31.5 µM | NCI-H460 5.81 µM | RXF 393 14.9 µM | TK-10 27.8 µM | ACHN 10.9 µM | M14 17.1 µM | NCI-H23 19.5 µM | MOLT-4 11.6 µM | HL-60 6.85 µM | SF-268 15.6 µM | SF-539 18.1 µM

CC(C)=CC(=O)Cc1nc2cc(C)c(C)cc2[nH]c1=O
inactive: A498 > 100 µM | HCT-116 > 100 µM | LOX IMVI > 100 µM | CCRF-CEM > 100 µM | NCI-H460 > 100 µM | OVCAR-5 > 100 µM | RXF 393 64.9 µM | TK-10 > 100 µM | ACHN > 100 µM | OVCAR-4 87.1 µM | M14 > 100 µM | NCI-H23 > 100 µM | MOLT-4 > 100 µM | SNB-75 > 100 µM | HL-60 > 100 µM | SF-268 99.3 µM | SF-539 > 100 µM

COC(=O)c1cc(OC(C)=O)c2c(OC)ccc(OC)c2c1
inactive: HCT-116 > 100 µM | NCI-H460 > 100 µM | OVCAR-5 > 100 µM | RXF 393 > 100 µM | TK-10 > 100 µM | ACHN > 100 µM | OVCAR-4 > 100 µM | M14 > 100 µM | NCI-H23 > 100 µM | MOLT-4 60.8 µM | SNB-75 39.5 µM | SF-539 > 100 µM

CCOC(=O)NC(=O)c1cn(CCN2CCN(C(=O)CCCCCCCCCCNc3ncnc4c3ncn4C3OC(CO)C(O)C3O)CC2)c(=O)[nH]c1=O (centres undefined)
inactive: A498 > 100 µM | HCT-116 > 100 µM | LOX IMVI > 100 µM | CCRF-CEM > 100 µM | NCI-H460 > 100 µM | TK-10 > 100 µM | ACHN > 100 µM | M14 > 100 µM | NCI-H23 > 100 µM | MOLT-4 > 100 µM | SNB-75 > 100 µM | HL-60 > 100 µM | SF-268 > 100 µM

OCCCCn1cnc2c(O)ncnc21
inactive: A498 > 100 µM | HCT-116 > 100 µM | LOX IMVI > 100 µM | CCRF-CEM > 100 µM | NCI-H460 > 100 µM | OVCAR-5 > 100 µM | RXF 393 > 100 µM | TK-10 > 100 µM | ACHN > 100 µM | OVCAR-4 > 100 µM | M14 > 100 µM | NCI-H23 > 100 µM | MOLT-4 > 100 µM | SNB-75 > 100 µM | HL-60 > 100 µM | SF-268 > 100 µM | SF-539 > 100 µM

CCOC(=O)Cn1c(=O)n(C)c(=O)c2c1ncn2Cc1ccccc1
inactive: A498 > 100 µM | NCI-H522 > 100 µM | HCT-116 > 100 µM | CCRF-CEM > 100 µM | NCI-H460 > 100 µM | OVCAR-5 > 100 µM | TK-10 > 100 µM | ACHN > 100 µM | M14 > 100 µM | NCI-H23 > 100 µM | MOLT-4 > 100 µM | SNB-75 > 100 µM | SF-268 > 100 µM | SF-539 > 100 µM

CSc1nc2nc(C(O)C(O)C(O)CO)cnc2c(=O)[nH]1 (centres undefined)
inactive: A498 > 100 µM | NCI-H522 > 100 µM | HCT-116 > 100 µM | LOX IMVI > 100 µM | CCRF-CEM > 100 µM | NCI-H460 > 100 µM | OVCAR-5 > 100 µM | RXF 393 > 100 µM | TK-10 > 100 µM | ACHN > 100 µM | M14 > 100 µM | NCI-H23 > 100 µM | MOLT-4 > 100 µM | SNB-75 > 100 µM | HL-60 > 100 µM | SF-268 > 100 µM | SF-539 > 100 µM

CC1=NN(C(=O)c2ccc(Cl)cc2)C(=O)/C1=C/c1ccc(Cl)cc1
inactive: A498 > 100 µM | NCI-H522 > 100 µM | HCT-116 > 100 µM | LOX IMVI > 100 µM | CCRF-CEM > 100 µM | NCI-H460 > 100 µM | OVCAR-5 > 100 µM | RXF 393 > 100 µM | TK-10 > 100 µM | ACHN > 100 µM | OVCAR-4 > 100 µM | M14 > 100 µM | NCI-H23 > 100 µM | MOLT-4 > 100 µM | HL-60 > 100 µM | SF-268 > 100 µM | SF-539 > 100 µM

O=C1CCN(CCC(F)(F)C(F)(F)C(F)(F)C(F)(F)F)C(=S)N1
inactive: NCI-H522 > 100 µM | HCT-116 > 100 µM | LOX IMVI > 100 µM | CCRF-CEM > 100 µM | NCI-H460 > 100 µM | OVCAR-5 > 100 µM | RXF 393 > 100 µM | TK-10 > 100 µM | ACHN > 100 µM | OVCAR-4 > 100 µM | M14 > 100 µM | NCI-H23 > 100 µM | MOLT-4 > 100 µM | SNB-75 > 100 µM | HL-60 > 100 µM | SF-268 > 100 µM | SF-539 > 100 µM
